We go through 54 compounds from patent US20140094465A1, “Compounds as S-Nitrosoglutathione Reductase Inhibitors” (N30 PHARMACEUTICALS, INC., priority 2011, published 2014).

This assay concerns the target T1, S-nitrosoglutathione reductase (GSNOR) (Homo sapiens, UniProt P11766).
T1 construct: made in house; host or cells: E. coli
The assay can be described thus: GSNOR assay (inhibition of GSNOR activity, NADH absorbance at 340 nm). It counts as biochemical. An outline of the steps: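 Recombinant GSNOR purified from E. coli, tag removed. Final conditions: 100 mM NaPO4 pH 7.4, 0.240 mM GSNO, 0.300 mM NADH, 0.5 μg/mL enzyme, 1% DMSO; NADH loss followed as 340 nm absorbance change over 3 min at 25 °C. Compounds 100–0.003 μM, triplicate; IC50 by curve analysis.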

Where [1] appears, read: GSNOR inhibitor activity, Tables 1-6, read-out: IC50 range.
Setting [2] is: Table 7, GSNOR inhibition, IC50 range class a/b/c, read-out: IC50.
The mark [3] stands for this setting: Table 8, GSNOR inhibition, IC50 range class a/b/c, read-out: IC50.

Each structure is given as a SMILES string. Like-named read-outs stand apart in the source and are kept apart here. Some results are limits rather than exact numbers.

T1 sequence (P11766 whole entry): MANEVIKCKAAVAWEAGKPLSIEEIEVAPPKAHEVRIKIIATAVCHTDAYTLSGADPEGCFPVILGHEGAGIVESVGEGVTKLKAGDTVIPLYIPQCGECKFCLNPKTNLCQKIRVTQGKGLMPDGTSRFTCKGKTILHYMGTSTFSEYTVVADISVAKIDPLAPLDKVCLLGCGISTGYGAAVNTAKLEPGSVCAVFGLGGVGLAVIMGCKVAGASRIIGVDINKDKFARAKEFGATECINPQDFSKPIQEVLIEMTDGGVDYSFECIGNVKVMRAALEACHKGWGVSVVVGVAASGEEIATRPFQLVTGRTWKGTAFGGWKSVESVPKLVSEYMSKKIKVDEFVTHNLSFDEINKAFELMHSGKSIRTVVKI

For orientation: IC50 means the concentration needed to halve the response being measured. As to `O=C(O)c1ccc(CC(=O)c2ccc(O)c(F)c2)c(F)c1` [VI-4, 3-fluoro-4-(2-(3-fluoro-4-hydroxyphenyl)-2-oxoethyl)benzoic acid], under setting [1], the IC50 was under 100 nM.

As for `O=[N+]([O-])c1cc(-c2ccc3cc(O)ccc3n2)ccc1O` [Compound I-61, 2-(4-hydroxy-3-nitrophenyl)quinolin-6-ol], the IC50 under setting [1] lay in the range of 1000 to 10000 nM.

As to `O=C(O)c1ccc(-c2ccc(-c3ccc(O)cc3)[nH]2)cc1` [VII-23, 4-(5-(4-hydroxyphenyl)-1H-pyrrol-2-yl)benzoic acid], the IC50 under setting [2] lay in the range of 1000 to 10000 nM.

With `O=C(O)[C@H]1CC[C@H](c2nc3ccc(O)cc3cc2Cl)CC1` [Compound I-35], under setting [1], the IC50 was in the range of 100 to 1000 nM.

Consider `O=C(O)c1ccc(NC(=O)c2ccc(O)cc2O)cc1` [VI-16, 4-(2,4-dihydroxybenzamido)benzoic acid], for which the IC50 under setting [1] was in the range of 1000 to 10000 nM.

For the compound `O=C(O)[C@H]1CC[C@H](c2nc3ccc(O)cc3cc2C(F)(F)F)CC1` [Compound I-43], the IC50 under setting [1] was under 100 nM.

As to `O=C(O)c1ccc(CC(=O)c2c(F)cc(O)cc2F)c(F)c1` [VI-10, 4-(2-(2,6-difluoro-4-hydroxyphenyl)-2-oxoethyl)-3-fluorobenzoic acid], under setting [1], the IC50 was 100 to 1000 nM.

`COCc1oc2cc(O)ccc2c(=O)c1-c1ccc(C(=O)O)cc1` [IV-2]: the IC50 under setting [1] fell in the range of 100 to 1000 nM.

As for `CCOCCCn1c(-c2ccc(O)cc2)ccc1-c1ccc(C(=O)O)cc1` [VII-36, 4-(1-(3-ethoxypropyl)-5-(4-hydroxyphenyl)-1H-pyrrol-2-yl)benzoic acid], the IC50 under setting [2] was under 100 nM.

As for `O=C(O)c1ccc(-c2ccc3cc(O)ccc3n2)c(Br)c1` [Compound I-46, 3-bromo-4-(6-hydroxyquinolin-2-yl)benzoic acid], the IC50 under setting [1] was under 100 nM.

Turning to `O=C(O)c1ccc(Oc2c(-c3ccc(F)cc3)oc3cc(O)ccc3c2=O)cc1` [Compound V-8, 4-(2-(4-fluorophenyl)-7-hydroxy-4-oxo-4H-chromen-3-yloxy)benzoic acid], under setting [1], the IC50 fell in the range of 1000 to 10000 nM.

Turning to `O=C(O)c1ccc(Sc2c(C(F)(F)F)oc3cc(O)ccc3c2=O)cc1` [Compound V-11, 4-(7-hydroxy-4-oxo-2-(trifluoromethyl)-4H-chromen-3-ylthio)benzoic acid], under setting [1], the IC50 lay in the range of 1000 to 10000 nM.

Take `O=C(O)c1ccc(-c2ccc(-c3ccc(O)c(F)c3)s2)s1` [VII-17, 5′-(3-fluoro-4-hydroxyphenyl)-[2,2′-bithiophene]-5-carboxylic acid]: the 50% inhibitory concentration (IC50) under setting [2] was under 100 nM.

With `Cn1c(-c2ccc(O)cc2)ccc1-c1ccc(C(=O)O)s1` [VII-24, 5-(5-(4-hydroxyphenyl)-1-methyl-1H-pyrrol-2-yl)thiophene-2-carboxylic acid], the IC50 under setting [2] was 100 to 1000 nM.

For the compound `CC(F)(F)c1oc2cc(O)ccc2c(=O)c1-c1ccc(C(=O)O)cc1` [IV-16], the IC50 under setting [1] was under 100 nM.

For `O=C(O)c1ccc(CC(=O)c2ccc(O)c(F)c2F)c(F)c1` [VI-3, 4-(2-(2,3-difluoro-4-hydroxyphenyl)-2-oxoethyl)-3-fluorobenzoic acid], under setting [1], the IC50 is under 100 nM.

In the case of `O=C(O)c1ccc(-c2cc(-c3ccc(O)cc3)cs2)s1` [VII-19, 4′-(4-hydroxyphenyl)-[2,2′-bithiophene]-5-carboxylic acid], the half-maximal inhibitory concentration (IC50) under setting [2] lay within 100 to 1000 nM.

In the case of `Cc1cc(C(=O)O)ccc1-c1ncc2cc(O)ccc2n1` [II-4], the IC50 under setting [1] was under 100 nM.

`Cc1oc2cc(O)ccc2c(=O)c1-c1ccc(-c2nnn[nH]2)cc1` [IV-28]: the IC50 under setting [1] was under 100 nM.

In the case of `O=C(O)c1ccc(-c2cc(F)c3cc(O)ccc3c2)cc1` [III-39, 4-(4-fluoro-6-hydroxynaphthalen-2-yl)benzoic acid], the IC50 under setting [1] was under 100 nM.

`O=C(O)c1ccc(-c2cc(=O)c3cc(O)ccc3[nH]2)c(F)c1` [VIII-8, 3-fluoro-4-(6-hydroxy-4-oxo-1,4-dihydroquinolin-2-yl)benzoic acid]: the IC50 under setting [3] was 1000 to 10000 nM.

For the compound `O=C(O)c1ccc(CC(=O)c2ccc(O)cc2F)c(F)c1` [VI-2, 3-fluoro-4-(2-(2-fluoro-4-hydroxyphenyl)-2-oxoethyl)benzoic acid], the IC50 reads like this: under setting [1], under 100 nM; (GSNOR, read-out: IC50) under 100 nM.

Turning to `CC(C)CCn1c(-c2ccc(O)cc2)ccc1-c1ccc(C(=O)O)cc1` [VII-28, 4-(5-(4-hydroxyphenyl)-1-isopentyl-1H-pyrrol-2-yl)benzoic acid], the IC50 under setting [2] was under 100 nM.

On to `O=C(O)c1ccc(-c2c(C(F)(F)F)oc3cc(O)ccc3c2=O)s1` [IV-24], for which the IC50 under setting [1] is under 100 nM.

With `O=C(O)c1ccc(-c2ccc3c(F)c(O)ccc3c2)c(Cl)c1` [III-30], the IC50 under setting [1] was under 100 nM.

Regarding `O=C(O)c1ccc(-c2cc(F)c3cc(O)ccc3n2)c(Cl)c1` [Compound I-37, 3-chloro-4-(4-fluoro-6-hydroxyquinolin-2-yl)benzoic acid], the IC50 under setting [1] was under 100 nM.

As for `CCOc1cc(-c2c(C(F)(F)F)oc3cc(O)ccc3c2=O)cc([N+](=O)[O-])c1O` [IV-46, 3-(3-ethoxy-4-hydroxy-5-nitrophenyl)-7-hydroxy-2-(trifluoromethyl)-4H-chromen-4-one], under setting [1], the IC50 was under 100 nM.

For `O=c1c2ccc(O)cc2cc(C(F)(F)F)n1[C@H]1CC[C@H](C(=O)O)CC1` [VIII-15, (trans)-4-(6-hydroxy-1-oxo-3-(trifluoromethyl)isoquinolin-2(1H)-yl)cyclohexanecarboxylic acid], the IC50 under setting [3] is under 100 nM.

Regarding `O=C(O)[C@H]1CC[C@@H](c2nc3ccc(O)cc3cc2C(F)(F)F)CC1` [Compound I-44], the half-inhibitory concentration (IC50) under setting [1] fell in the range of 1000 to 10000 nM.

Consider `O=C(O)c1ccc(CCC(=O)c2ccc(O)c(F)c2F)cc1` [VI-29, 4-(3-(2,3-difluoro-4-hydroxyphenyl)-3-oxopropyl)benzoic acid], for which, under setting [1], the IC50 lay in the range of 1000 to 10000 nM.

`O=C(O)c1ccc(-c2cc3ccc(O)cc3cc2Cl)cc1` [III-22, 4-(3-chloro-6-hydroxynaphthalen-2-yl)benzoic acid]: the IC50 under setting [1] is under 100 nM.

As to `O=C(C[C@H]1CC[C@H](C(=O)O)CC1)c1ccc(O)cc1O` [VI-1, (trans)-4-(2-(2,4-dihydroxyphenyl)-2-oxoethyl)cyclohexanecarboxylic acid], under setting [1], the concentration for half-maximal inhibition (IC50) lay in the range of 100 to 1000 nM.

As to `O=C(O)c1ccc(-c2ccc3cc(O)ccc3c2)c(N2CCOCC2)c1` [III-10], the IC50 under setting [1] fell in the range of 100 to 1000 nM.

Take `CCOCCn1c(-c2ccc(O)cc2)ccc1-c1ccc(C(=O)O)cc1` [VII-35, 4-(1-(2-ethoxyethyl)-5-(4-hydroxyphenyl)-1H-pyrrol-2-yl)benzoic acid]: the IC50 under setting [2] was under 100 nM.

On to `COc1cc(C(=O)O)ccc1-c1ccc2cc(O)ccc2c1` [III-3], for which the IC50 under setting [1] is under 100 nM.

Take `O=C(O)c1ccc(CC(=O)c2ccc(O)cc2O)c(F)c1` [VI-18, 4-(2-(2,4-dihydroxyphenyl)-2-oxoethyl)-3-fluorobenzoic acid]: the IC50 under setting [1] was 100 to 1000 nM.

Turning to `O=c1[nH]nc(-c2ccc(-c3ccc4cc(O)ccc4n3)cc2)o1` [Compound I-24], under setting [1], the IC50 was under 100 nM.

For the compound `N#Cc1c(-c2ccc(C(=O)O)cc2F)ccc2cc(O)ccc12` [III-29], under setting [1], the IC50 is under 100 nM.

As to `O=c1c(-c2ccc(O)c([N+](=O)[O-])c2)c(C(F)(F)F)oc2cc(O)ccc12` [IV-45, 7-hydroxy-3-(4-hydroxy-3-nitrophenyl)-2-(trifluoromethyl)-4H-chromen-4-one], the IC50 under setting [1] was under 100 nM.

On to `O=C(O)c1ccc(-c2ccc(-c3ccc(O)c(F)c3)s2)cc1` [VII-7, 4-(5-(3-fluoro-4-hydroxyphenyl)thiophen-2-yl)benzoic acid], for which the IC50 under setting [2] was in the range of 100 to 1000 nM.

On to `O=c1c(-c2ccc(-c3nnn[nH]3)c(Cl)c2)c(C(F)(F)F)oc2cc(O)ccc12` [IV-42], for which the IC50 under setting [1] was under 100 nM.

`CN(C)c1cc(-c2ccc(C(=O)O)cc2)nc2ccc(O)cc12` [Compound I-47, 4-(4-(dimethylamino)-6-hydroxyquinolin-2-yl)benzoic acid]: the IC50 under setting [1] lay within 100 to 1000 nM.

Consider `CN(c1ccc(C(=O)O)cc1)c1c(C(F)(F)F)oc2cc(O)ccc2c1=O` [Compound V-14, 4-((7-hydroxy-4-oxo-2-(trifluoromethyl)-4H-chromen-3-yl)(methyl)amino)benzoic acid], for which, under setting [1], the IC50 was in the range of 1000 to 10000 nM.

Consider `CN(C)c1cc(C(=O)O)ccc1-c1ccc2cc(O)ccc2n1` [Compound I-25], for which, under setting [1], the IC50 was under 100 nM.

Take `CS(=O)(=O)NC(=O)c1ccc(-c2c(C(F)(F)F)oc3cc(O)ccc3c2=O)cc1` [IV-32]: under setting [1], the IC50 lay in the range of 100 to 1000 nM.

Consider `Cc1cc2cc(O)ccc2cc1-c1ccc(C(=O)O)cc1` [III-27, 4-(6-hydroxy-3-methylnaphthalen-2-yl)benzoic acid], for which, under setting [1], the IC50 was under 100 nM.

In the case of `O=C(O)C1CC=C(c2nc3ccc(O)cc3nc2C(F)(F)F)CC1` (stereo not shown) [II-12], under setting [1], the IC50 is under 100 nM.

Consider `O=C(O)c1ccc(Oc2c(C(F)(F)F)oc3cc(O)ccc3c2=O)cc1O` [Compound V-13, 2-hydroxy-4-(7-hydroxy-4-oxo-2-(trifluoromethyl)-4H-chromen-3-yloxy)benzoic acid], for which the IC50 under setting [1] is 100 to 1000 nM.

In the case of `O=c1c(C2CCC(c3nn[nH]n3)CC2)c(C(F)(F)F)oc2cc(O)ccc12` (stereo not shown) [IV-36], the IC50 under setting [1] was under 100 nM.

With `O=C(O)c1ccc(-c2ccc3cc(O)ccc3c2)c(C(F)(F)F)c1` [III-20, 4-(6-hydroxynaphthalen-2-yl)-3-(trifluoromethyl)benzoic acid], under setting [1], the IC50 was under 100 nM.

`Nc1cc(-c2ccc(C(=O)O)cc2)nc2ccc(O)cc12` [Compound I-51, 4-(4-amino-6-hydroxyquinolin-2-yl)benzoic acid]: the IC50 under setting [1] lay within 1000 to 10000 nM.

With `O=C(O)c1cccc(-c2csc(-c3ccc(O)c(F)c3)n2)c1` [VII-5, 3-(2-(3-fluoro-4-hydroxyphenyl)thiazol-4-yl)benzoic acid], the IC50 under setting [2] fell in the range of 100 to 1000 nM.

For the compound `O=C(O)c1ccc(-c2ccc3c(F)c(O)ccc3c2)c(F)c1` [III-32], the IC50 under setting [1] is under 100 nM.

Turning to `O=c1c2ccc(O)cc2ccn1[C@H]1CC[C@H](C(=O)O)CC1` [VIII-14, (trans)-4-(6-hydroxy-1-oxoisoquinolin-2(1H)-yl)cyclohexanecarboxylic acid], under setting [3], the IC50 is 1000 to 10000 nM.
